Values after ≈ are worked out from the molar mass of the structure shown. Active and inactive are the calls of the source.

From ChEMBL document CHEMBL2046361, “Ianthelliformisamines A-C, antibacterial bromotyrosine-derived metabolites from the marine sponge Suberea ianthelliformis” (J Nat Prod, 2012) come the findings set out here.

The subject of assay [1] is Pseudomonas aeruginosa. In words: Antimicrobial activity against Pseudomonas aeruginosa PAO1 assessed as inhibition of cell viability at 350 uM after 18 hrs by spectrophotometry. The assay is classed as functional, organism-based.
Assay [2] relates to Staphylococcus aureus. The experiment in a line: Antimicrobial activity against Staphylococcus aureus 01A1095 assessed as inhibition of cell viability at 350 uM after 18 hrs by spectrophotometry. The assay is classed as functional, organism-based.
Assay [3] relates to Pseudomonas aeruginosa. In words: Antimicrobial activity against Pseudomonas aeruginosa PAO1 assessed as inhibition of cell viability at 175 uM after 18 hrs by spectrophotometry. The assay is classed as functional. To be noted: PAO1, 18 h.
Assay [4] relates to Staphylococcus aureus. In words: Antimicrobial activity against Staphylococcus aureus 01A1095 assessed as inhibition of cell viability at 87.5 uM after 18 hrs by spectrophotometry. The assay is classed as functional. To be noted: 01A1095, 18 h.
For assay [5], the system named is Pseudomonas aeruginosa. The experiment in a line: Antimicrobial activity against Pseudomonas aeruginosa PAO1 assessed as inhibition of cell viability after 18 hrs by spectrophotometry. The assay is classed as functional, organism-based. To be noted: PAO1, 18 h.
Assay [6] relates to Staphylococcus aureus. In words: Antimicrobial activity against Staphylococcus aureus 01A1095 assessed as inhibition of cell viability after 18 hrs by spectrophotometry. The assay is classed as functional, organism-based. To be noted: 01A1095, 18 h.
For assay [7], the system named is Staphylococcus aureus. The experiment in a line: Antimicrobial activity against Staphylococcus aureus 01A1095 assessed as inhibition of cell viability at 175 uM after 18 hrs by spectrophotometry. The assay is classed as functional. The conditions noted are these: 01A1095, 18 h.
Assay [8] deals with Pseudomonas aeruginosa. In words: Antimicrobial activity against Pseudomonas aeruginosa PAO1 assessed as inhibition of cell viability at 87.5 uM after 18 hrs by spectrophotometry. The assay is classed as functional. The conditions noted are these: PAO1, 18 h.

In general, inhibition refers to the change of the read-out against control, counted positive when it falls. For the compound `CN(C)CCCOc1c(Br)cc(CCN(C)C)cc1Br`, the inhibition entry in the assay with Pseudomonas aeruginosa [1] and in the assay on Staphylococcus aureus [2] was “inactive” throughout.

As to `COC1=C(Br)[C@H](O)[C@@]2(C=C1Br)CC(C(=O)NCCCOc1c(Br)cc(CCN)cc1Br)=NO2` [ARAPLYSILLIN I], the inhibition at 175 µM with Pseudomonas aeruginosa [3] came to 65%. Also, the inhibition at 87.5 µM in the assay on Staphylococcus aureus [4] was found to be 60%.

Broadly, the IC50 is the concentration that gives 50% inhibition. As to `O=C(O)c1cn(C2CC2)c2cc(N3CCNCC3)c(F)cc2c1=O` [CIPROFLOXACIN], the IC50 stood at 0.038 µM in the assay with Pseudomonas aeruginosa [5] and 125 µM in the assay with Staphylococcus aureus [6].

By MIC is commonly meant the smallest concentration in the dilution series that meets the test's criterion for growth inhibition. In the case of `COc1c(Br)cc(/C=C/C(=O)NCCCNCCCCNCCCN)cc1Br` [IANTHELLIFORMISAMINE A], in the assay with Pseudomonas aeruginosa [5], the IC50 was 6.8 µM and the MIC came out at 35 µM (≈ 18.2 µg/mL). Besides, the inhibition at 175 µM in the assay on Staphylococcus aureus [7] was 77%.

Take `COc1c(Br)cc(/C=C/C(=O)NCCCNCCCCN)cc1Br` [IANTHELLIFORMISAMINE B]: the inhibition at 87.5 µM in the assay on Pseudomonas aeruginosa [8] came out at 80%.

For the compound `COc1c(Br)cc(/C=C/C(=O)NCCCNCCCCNCCCNC(=O)/C=C/c2cc(Br)c(OC)c(Br)c2)cc1Br` [IANTHELLIFORMISAMINE C], in the assay with Pseudomonas aeruginosa [5], the IC50 was found to be 8.9 µM and the MIC came to 17.5 µM (≈ 14.7 µg/mL). Also, in the assay on Staphylococcus aureus [6], the IC50 stood at 4.1 µM and the MIC stood at 8.75 µM (≈ 7.33 µg/mL).
